Experimental data published in patent publication US8642013B2, “Nano-scale contrast agents and methods of use” (priority 2008, dated 2014).

Experiment: blood concentration and clearance after injection in tumor-bearing rats
Type: in vivo, Fischer female rats
Conditions: high iodine dose (1,344 mgl/mL)
Procedure: Contrast-enhanced mammography was performed with a commercial digital mammography system (Senographe 2000D, GE Healthcare) at 49 kVp and 63 mAs with a rhodium target and an extra copper filter of 0.3 mm thickness. These settings were used to shape the x-rays to have optimal energies for iodine. […] Initial studies were performed with high doses of the nano-probe to obtain a vascular image. A pre-contrast image (FIG. 2(a)) and post-contrast images were acquired 1, 5, 10, and 15 minutes after tail vein injection of the nano-probe. […] In the case of an adult human, this would correspond to a dose of about 654 mL of the nano-probe (assuming a blood volume of five liters), which is prohibitively large for use in humans. However, this high dose was used to clearly visualize the blood vessels that the mammography system was capable of detecting.
Another control group was injected with a conventional iodinated agent (iohexol) at an iodine dose equivalent to the high dose of 1,344 mgl/mL of the nano-probe. (See FIG. 7). […] (See FIG. 8).

clearance: rapidly cleared via the kidneys
SMILES: CC(=O)N(CC(O)CO)c1c(I)c(C(=O)NCC(O)CO)c(I)c(C(=O)NCC(O)CO)c1I (stereo not shown) [iohexol]
